In ChEMBL document CHEMBL1127120, “Benzofuran based angiotensi II antagonists related to GR117289: Part II; amino acid amides” (Bioorg Med Chem Lett, 1993):
Calls of active or inactive are those of the source. No cut-off for these calls is given here.

Experiments:
[1] = target: T1, Type-1 angiotensin II receptor (Oryctolagus cuniculus) (UniProt P34976); test: Affinity for Angiotensin II receptor, type 1 as antagonism of angII contractile effect in rabbit isolated thoracic aorta; assay type: functional, tissue-based
T1 sequence (whole entry): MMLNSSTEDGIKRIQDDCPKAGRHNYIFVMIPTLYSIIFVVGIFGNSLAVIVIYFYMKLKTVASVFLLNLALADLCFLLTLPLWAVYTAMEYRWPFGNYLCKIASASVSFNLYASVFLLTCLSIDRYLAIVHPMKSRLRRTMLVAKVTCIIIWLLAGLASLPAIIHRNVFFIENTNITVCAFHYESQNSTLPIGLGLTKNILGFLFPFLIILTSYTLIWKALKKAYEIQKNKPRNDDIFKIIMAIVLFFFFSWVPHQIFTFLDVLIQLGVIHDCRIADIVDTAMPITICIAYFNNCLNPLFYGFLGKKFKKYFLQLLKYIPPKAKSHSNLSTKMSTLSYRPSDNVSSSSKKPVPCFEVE

Rattus norvegicus [2] = species: Rattus norvegicus; test: Oral activity in renal artery ligated rat model was determined; no significant activity.; assay type: functional, organism-based
Rattus norvegicus [3] = test: Oral activity in renal artery ligated rat model was determined; excellent significant activity causing large and sustained fall in blood pressure at a dose of 1 mg/Kg.; assay type: functional, organism-based

| Compound | pKB [1] | Activity (Rattus norvegicus [2]) | Activity (Rattus norvegicus [3]) |
| --- | --- | --- | --- |
| CCCCc1nc(Cl)c(C(=O)NCC(=O)O)n1Cc1ccc2oc(-c3ccccc3-c3nn[nH]n3)c(Br)c2c1 | 9.4 | inactive | – |
| CCCCc1nc(Cl)c(C(=O)N[C@H](Cc2ccccc2)C(=O)O)n1Cc1ccc2oc(-c3ccccc3-c3nn[nH]n3)c(Br)c2c1 | 8 | inactive | – |
| CCCCc1nc(Cl)c(C(=O)NCC(N)=O)n1Cc1ccc2oc(-c3ccccc3-c3nn[nH]n3)c(Br)c2c1 | 9.4 | inactive | – |
| CCCCc1nc(Cl)c(C(=O)NCC(=O)OCC)n1Cc1ccc2oc(-c3ccccc3-c3nn[nH]n3)c(Br)c2c1 | 9.3 | – | Active |
| CCCCc1ncc(C=C(Cc2cccs2)C(=O)O)n1Cc1ccc2oc(-c3ccccc3-c3nn[nH]n3)c(Br)c2c1 | 10.9 | – | – |

Continued, in another order:

| pKB [1] | Compound | Activity (Rattus norvegicus [2]) | Activity (Rattus norvegicus [3]) |
| --- | --- | --- | --- |
| 8.9 | CCCCc1nc(Cl)c(C(=O)N[C@@H](C)C(=O)O)n1Cc1ccc2oc(-c3ccccc3-c3nn[nH]n3)c(Br)c2c1 | inactive | – |
| 9.2 | CCCCc1nc(Cl)c(C(=O)N[C@@H](C(=O)O)[C@H](C)CC)n1Cc1ccc2oc(-c3ccccc3-c3nn[nH]n3)c(Br)c2c1 | inactive | – |
| 9 | CCCCc1nc(Cl)c(C(=O)N[C@H](C)C(=O)O)n1Cc1ccc2oc(-c3ccccc3-c3nn[nH]n3)c(Br)c2c1 | inactive | – |
